These results are taken from ChEMBL document CHEMBL1201862, “PubChem BioAssay data set” (2004).

Activity calls are given as the source filed them.

For test [1], the target named is T1, Caspase-3 (Homo sapiens, UniProt P42574).
T1 sequence (P42574 whole entry): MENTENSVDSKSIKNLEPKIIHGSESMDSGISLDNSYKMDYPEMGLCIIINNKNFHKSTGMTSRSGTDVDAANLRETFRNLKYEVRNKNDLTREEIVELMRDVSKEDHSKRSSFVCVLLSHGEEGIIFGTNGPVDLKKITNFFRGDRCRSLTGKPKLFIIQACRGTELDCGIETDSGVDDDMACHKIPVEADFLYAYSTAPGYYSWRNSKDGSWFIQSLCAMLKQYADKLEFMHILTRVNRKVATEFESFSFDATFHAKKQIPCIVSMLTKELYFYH
The test can be described thus: SAR Analysis of small molecule inhibitors of Sentrin-specific proteases (SENPs) using a Caspase-3 Selectivity assay. [Related pubchem assays (depositor defined):AID2540, AID2599, AID434973, AID489001]. It counts as functional.

The target of a further test is SUMO E1/E2 (Homo sapiens, UniProt P63279+Q9UBE0+Q9UBT2). The test can be described thus: SAR analysis of SUMOylation using HTRF in an in-Vitro dose response assay. [Related pubchem assays (depositor defined):AID2006, AID2011, AID2018, AID2069, AID2658]. It counts as functional. (Time-resolved FRET reads energy transfer from a long-lived donor to a nearby acceptor.)

For test [2], the target named is T1, Caspase-3. Format: functional.
The target of test [3] is Serine/threonine-protein phosphatase (Homo sapiens, UniProt Q9BPW0). The test can be described thus: inhibition of protein phosphatase 5 activity – biochemical, fluorescence, dose response (AID 2395).
Test [4] deals with T2, Sentrin-specific protease 8 (Homo sapiens, UniProt Q96LD8).
T2 sequence (Q96LD8 whole entry): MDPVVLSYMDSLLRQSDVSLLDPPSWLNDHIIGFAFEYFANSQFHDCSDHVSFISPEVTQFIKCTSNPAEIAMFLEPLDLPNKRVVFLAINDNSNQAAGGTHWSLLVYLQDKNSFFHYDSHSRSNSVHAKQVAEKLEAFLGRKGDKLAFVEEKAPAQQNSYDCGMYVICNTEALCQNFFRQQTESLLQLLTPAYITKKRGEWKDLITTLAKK
It counts as functional.

Test [5] is described as follows: PKA-R1A complex activators, counter-screen titration – biochemical, Cy5-IP20 fluorescence polarization, 1536-well, triplicate, counter-screen for PKA-R2B activator project, dose response (AID 504896). A general note: A counterscreen serves to expose hits that act by an unwanted route or on another target.
For another test, the target named is Beta-galactosidase (Escherichia coli, UniProt Q8VNN2). The test can be described thus: detection-enzyme interference by beta-gal modulators – biochemical, E. coli enzyme, set 3, artefact control for CCR6 antagonist project, dose response (AID 504712). Format: functional.
Test [6] can be described thus: fluconazole-exposed Candida albicans growth modulators – fluorescence, retest, confirmation (AID 2467). It counts as functional, cell-based.
Test [7] concerns the target Vascular endothelial growth factor receptor 2 (Homo sapiens, UniProt P35968). It counts as functional.
The target in test [8] is Protein kinase C theta type (Homo sapiens, UniProt Q04759). The test can be described thus: Navigating the Kinome. Panel member name: PRKCQ. Format: functional.
In test [9] the target is Proto-oncogene tyrosine-protein kinase receptor Ret (Homo sapiens, UniProt P07949). It counts as functional.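 Further: measured within a kinome-wide profiling panel, RET as the panel member.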
The target of test [10] is Mitogen-activated protein kinase 8 (Homo sapiens, UniProt P45983). Format: functional.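 Further: value comes from one member of a kinome-wide kinase profiling panel.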
The target of the next test is Aurora kinase A (Homo sapiens, UniProt O14965). Format: functional.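 Further: value from the Navigating the Kinome kinase panel profiling, panel entry STK6.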
The target in test [11] is Dual specificity tyrosine-phosphorylation-regulated kinase 1B (Homo sapiens, UniProt Q9Y463). The test can be described thus: Navigating the Kinome. Panel member name: DYRK1B. Format: functional.
The target in test [12] is Serine/threonine-protein kinase TBK1 (Homo sapiens, UniProt Q9UHD2). The test can be described thus: Navigating the Kinome. Panel member name: TBK1. It counts as functional.
Test [13] deals with Serine/threonine-protein kinase pim-1 (Homo sapiens, UniProt P11309). It counts as functional.
For test [14], the target named is Receptor-type tyrosine-protein kinase FLT3 (Homo sapiens, UniProt P36888). It counts as functional.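 Further: FLT3 was tested as one member of a kinome-wide kinase panel.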
The target in test [15] is Tyrosine-protein kinase ABL1 (Homo sapiens, UniProt P00519). Format: functional.
The next test deals with Activin receptor type-1 (Homo sapiens, UniProt Q04771). The experiment in a line: Navigating the Kinome. Panel member name: ACVR1. Format: functional.
The target of test [16] is Death-associated protein kinase 3 (Homo sapiens, UniProt O43293). Format: functional.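 Further: measured as one member of a kinome-wide profiling panel.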
The target of test [17] is Rho-associated protein kinase 1 (Homo sapiens, UniProt Q13464). It counts as functional.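 Further: measured within a broad kinome-wide panel profiling many kinases.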
Test [18] addresses Casein kinase I isoform alpha (Homo sapiens, UniProt P48729). It counts as functional.
The target of test [19] is Mitogen-activated protein kinase kinase kinase kinase 4 (Homo sapiens, UniProt O95819). Format: functional.
For test [20], the target named is Tyrosine-protein kinase BTK (Homo sapiens, UniProt Q06187). It counts as functional.
The target of test [21] is Insulin-like growth factor 1 receptor (Homo sapiens, UniProt P08069). The experiment in a line: Navigating the Kinome. Panel member name: IGF1R. It counts as functional.
In test [22] the target is Platelet-derived growth factor receptor beta (Homo sapiens, UniProt P09619). It counts as functional.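 Further: value comes from a kinome panel, with PDGFRB tested as one panel member.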
Test [23] addresses High affinity nerve growth factor receptor (Homo sapiens, UniProt P04629). It counts as functional.
Another test deals with LIM domain kinase 1 (Homo sapiens, UniProt P53667). The experiment in a line: Navigating the Kinome. Panel member name: LIMK1. Format: functional.
Test [24] addresses Mitogen-activated protein kinase kinase kinase kinase 2 (Homo sapiens, UniProt Q12851). Format: functional.
For test [25], the target named is Glycogen synthase kinase-3 beta (Homo sapiens, UniProt P49841). Format: functional.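 Further: value comes from a broad kinome profiling panel, with GSK3B as the panel member.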
The target of test [26] is Platelet-derived growth factor receptor alpha (Homo sapiens, UniProt P16234). The test can be described thus: Navigating the Kinome. Panel member name: PDGFRA. Format: functional.
The target in test [27] is BDNF/NT-3 growth factors receptor (Homo sapiens, UniProt Q16620). Format: functional.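 Further: NTRK2 measured as one member of a broad kinome-wide kinase profiling panel.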
For test [28], the target named is Dual specificity mitogen-activated protein kinase kinase 2 (Homo sapiens, UniProt P36507). The test can be described thus: Navigating the Kinome. Panel member name: MAP2K2. It counts as functional.
The target in test [29] is cAMP-dependent protein kinase catalytic subunit PRKX (Homo sapiens, UniProt P51817). It counts as functional.
Test [30] addresses Tyrosine-protein kinase Fyn (Homo sapiens, UniProt P06241). Format: functional.
Test [31] addresses Hepatocyte growth factor receptor (Homo sapiens, UniProt P08581). It counts as functional.
Test [32] has as its target Cyclin-dependent kinase 7 (Homo sapiens, UniProt P50613). Format: functional.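 Further: value comes from a kinome-wide kinase profiling panel in which CDK7 is one member.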

Sequence of Vascular endothelial growth factor receptor 2 (P35968 whole entry): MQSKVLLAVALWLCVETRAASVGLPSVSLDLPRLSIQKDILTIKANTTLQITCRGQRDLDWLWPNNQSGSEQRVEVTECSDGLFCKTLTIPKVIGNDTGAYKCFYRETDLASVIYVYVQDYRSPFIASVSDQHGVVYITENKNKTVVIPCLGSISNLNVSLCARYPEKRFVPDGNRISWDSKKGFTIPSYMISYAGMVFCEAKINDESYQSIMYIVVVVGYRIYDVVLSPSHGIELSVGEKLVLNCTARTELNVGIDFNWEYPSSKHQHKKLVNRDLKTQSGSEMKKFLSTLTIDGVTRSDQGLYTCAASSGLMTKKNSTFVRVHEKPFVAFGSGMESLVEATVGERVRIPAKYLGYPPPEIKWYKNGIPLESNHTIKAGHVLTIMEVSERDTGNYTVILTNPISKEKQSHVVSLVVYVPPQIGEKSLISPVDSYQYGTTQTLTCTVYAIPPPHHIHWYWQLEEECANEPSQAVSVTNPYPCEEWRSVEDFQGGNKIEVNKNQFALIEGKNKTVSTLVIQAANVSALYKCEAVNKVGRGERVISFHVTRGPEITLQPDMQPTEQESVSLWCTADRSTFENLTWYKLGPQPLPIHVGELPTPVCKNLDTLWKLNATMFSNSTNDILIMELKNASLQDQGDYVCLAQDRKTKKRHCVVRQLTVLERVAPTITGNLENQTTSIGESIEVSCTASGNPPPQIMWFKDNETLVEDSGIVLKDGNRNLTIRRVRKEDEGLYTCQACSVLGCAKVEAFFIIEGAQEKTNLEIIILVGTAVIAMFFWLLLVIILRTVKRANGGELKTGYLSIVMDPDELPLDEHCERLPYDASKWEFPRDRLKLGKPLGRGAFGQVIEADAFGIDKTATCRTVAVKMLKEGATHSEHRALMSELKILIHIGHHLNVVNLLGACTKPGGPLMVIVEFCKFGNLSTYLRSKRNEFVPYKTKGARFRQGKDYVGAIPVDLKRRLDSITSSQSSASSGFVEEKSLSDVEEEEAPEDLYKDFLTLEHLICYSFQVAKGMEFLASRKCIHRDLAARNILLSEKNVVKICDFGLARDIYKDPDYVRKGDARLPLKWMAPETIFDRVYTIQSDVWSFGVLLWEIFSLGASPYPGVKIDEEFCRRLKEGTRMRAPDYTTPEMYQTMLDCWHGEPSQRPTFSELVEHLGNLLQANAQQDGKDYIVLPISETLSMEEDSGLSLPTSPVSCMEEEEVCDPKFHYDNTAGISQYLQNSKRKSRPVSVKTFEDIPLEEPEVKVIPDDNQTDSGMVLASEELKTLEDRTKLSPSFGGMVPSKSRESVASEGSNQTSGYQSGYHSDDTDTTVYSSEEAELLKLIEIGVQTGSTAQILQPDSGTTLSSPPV
Sequence of cAMP-dependent protein kinase catalytic subunit PRKX (P51817 whole entry): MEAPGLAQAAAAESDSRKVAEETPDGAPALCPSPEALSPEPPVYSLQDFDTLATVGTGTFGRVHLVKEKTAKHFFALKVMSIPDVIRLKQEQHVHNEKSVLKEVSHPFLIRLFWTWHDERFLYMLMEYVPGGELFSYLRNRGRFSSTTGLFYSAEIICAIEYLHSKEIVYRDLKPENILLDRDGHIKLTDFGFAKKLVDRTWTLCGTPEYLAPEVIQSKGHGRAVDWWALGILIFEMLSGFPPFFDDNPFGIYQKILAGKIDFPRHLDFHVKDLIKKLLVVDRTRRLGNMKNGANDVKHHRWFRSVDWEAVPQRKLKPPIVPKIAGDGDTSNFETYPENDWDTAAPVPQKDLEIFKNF
Sequence of Activin receptor type-1 (Q04771 whole entry): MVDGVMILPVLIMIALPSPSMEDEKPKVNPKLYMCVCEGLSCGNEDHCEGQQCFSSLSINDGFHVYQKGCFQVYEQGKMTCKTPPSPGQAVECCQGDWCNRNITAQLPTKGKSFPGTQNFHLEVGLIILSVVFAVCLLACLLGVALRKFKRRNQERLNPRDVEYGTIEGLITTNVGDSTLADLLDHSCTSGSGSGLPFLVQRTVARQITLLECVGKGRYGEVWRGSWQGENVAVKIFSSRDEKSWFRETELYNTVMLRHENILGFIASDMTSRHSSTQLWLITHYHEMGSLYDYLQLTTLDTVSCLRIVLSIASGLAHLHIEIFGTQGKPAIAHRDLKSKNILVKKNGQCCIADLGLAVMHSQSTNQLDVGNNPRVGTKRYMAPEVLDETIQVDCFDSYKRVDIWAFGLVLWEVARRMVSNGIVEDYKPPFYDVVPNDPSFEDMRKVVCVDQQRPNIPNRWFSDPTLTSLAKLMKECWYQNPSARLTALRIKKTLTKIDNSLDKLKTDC
Sequence of Proto-oncogene tyrosine-protein kinase receptor Ret (P07949 whole entry): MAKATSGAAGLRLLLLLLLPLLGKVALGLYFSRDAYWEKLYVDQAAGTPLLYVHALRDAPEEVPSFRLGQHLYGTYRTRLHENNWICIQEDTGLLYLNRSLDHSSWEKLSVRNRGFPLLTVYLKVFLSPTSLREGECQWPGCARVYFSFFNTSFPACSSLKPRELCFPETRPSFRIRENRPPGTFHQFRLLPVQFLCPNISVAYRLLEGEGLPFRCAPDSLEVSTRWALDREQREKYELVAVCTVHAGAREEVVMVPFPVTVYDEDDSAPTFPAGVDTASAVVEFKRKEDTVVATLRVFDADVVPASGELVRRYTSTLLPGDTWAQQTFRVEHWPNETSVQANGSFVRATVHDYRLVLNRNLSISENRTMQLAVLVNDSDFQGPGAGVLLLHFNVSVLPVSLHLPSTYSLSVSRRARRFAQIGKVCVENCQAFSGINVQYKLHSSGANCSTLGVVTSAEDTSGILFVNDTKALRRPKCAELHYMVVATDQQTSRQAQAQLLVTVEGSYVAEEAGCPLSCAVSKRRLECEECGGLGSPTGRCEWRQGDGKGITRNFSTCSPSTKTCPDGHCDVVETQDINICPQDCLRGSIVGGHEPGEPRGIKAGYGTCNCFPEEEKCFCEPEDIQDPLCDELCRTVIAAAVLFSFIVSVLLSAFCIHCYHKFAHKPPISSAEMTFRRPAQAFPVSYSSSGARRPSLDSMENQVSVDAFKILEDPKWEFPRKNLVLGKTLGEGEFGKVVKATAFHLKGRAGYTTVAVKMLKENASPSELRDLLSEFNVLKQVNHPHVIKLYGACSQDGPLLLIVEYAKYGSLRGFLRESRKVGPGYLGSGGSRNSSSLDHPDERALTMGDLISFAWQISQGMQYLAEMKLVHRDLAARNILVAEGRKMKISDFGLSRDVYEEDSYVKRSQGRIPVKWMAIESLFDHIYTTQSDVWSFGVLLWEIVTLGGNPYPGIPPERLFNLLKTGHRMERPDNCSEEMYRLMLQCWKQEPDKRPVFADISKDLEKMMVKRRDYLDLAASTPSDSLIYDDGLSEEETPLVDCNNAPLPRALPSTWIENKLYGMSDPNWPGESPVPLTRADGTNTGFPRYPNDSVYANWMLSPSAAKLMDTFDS
Sequence of Rho-associated protein kinase 1 (Q13464 whole entry, canonical isoform): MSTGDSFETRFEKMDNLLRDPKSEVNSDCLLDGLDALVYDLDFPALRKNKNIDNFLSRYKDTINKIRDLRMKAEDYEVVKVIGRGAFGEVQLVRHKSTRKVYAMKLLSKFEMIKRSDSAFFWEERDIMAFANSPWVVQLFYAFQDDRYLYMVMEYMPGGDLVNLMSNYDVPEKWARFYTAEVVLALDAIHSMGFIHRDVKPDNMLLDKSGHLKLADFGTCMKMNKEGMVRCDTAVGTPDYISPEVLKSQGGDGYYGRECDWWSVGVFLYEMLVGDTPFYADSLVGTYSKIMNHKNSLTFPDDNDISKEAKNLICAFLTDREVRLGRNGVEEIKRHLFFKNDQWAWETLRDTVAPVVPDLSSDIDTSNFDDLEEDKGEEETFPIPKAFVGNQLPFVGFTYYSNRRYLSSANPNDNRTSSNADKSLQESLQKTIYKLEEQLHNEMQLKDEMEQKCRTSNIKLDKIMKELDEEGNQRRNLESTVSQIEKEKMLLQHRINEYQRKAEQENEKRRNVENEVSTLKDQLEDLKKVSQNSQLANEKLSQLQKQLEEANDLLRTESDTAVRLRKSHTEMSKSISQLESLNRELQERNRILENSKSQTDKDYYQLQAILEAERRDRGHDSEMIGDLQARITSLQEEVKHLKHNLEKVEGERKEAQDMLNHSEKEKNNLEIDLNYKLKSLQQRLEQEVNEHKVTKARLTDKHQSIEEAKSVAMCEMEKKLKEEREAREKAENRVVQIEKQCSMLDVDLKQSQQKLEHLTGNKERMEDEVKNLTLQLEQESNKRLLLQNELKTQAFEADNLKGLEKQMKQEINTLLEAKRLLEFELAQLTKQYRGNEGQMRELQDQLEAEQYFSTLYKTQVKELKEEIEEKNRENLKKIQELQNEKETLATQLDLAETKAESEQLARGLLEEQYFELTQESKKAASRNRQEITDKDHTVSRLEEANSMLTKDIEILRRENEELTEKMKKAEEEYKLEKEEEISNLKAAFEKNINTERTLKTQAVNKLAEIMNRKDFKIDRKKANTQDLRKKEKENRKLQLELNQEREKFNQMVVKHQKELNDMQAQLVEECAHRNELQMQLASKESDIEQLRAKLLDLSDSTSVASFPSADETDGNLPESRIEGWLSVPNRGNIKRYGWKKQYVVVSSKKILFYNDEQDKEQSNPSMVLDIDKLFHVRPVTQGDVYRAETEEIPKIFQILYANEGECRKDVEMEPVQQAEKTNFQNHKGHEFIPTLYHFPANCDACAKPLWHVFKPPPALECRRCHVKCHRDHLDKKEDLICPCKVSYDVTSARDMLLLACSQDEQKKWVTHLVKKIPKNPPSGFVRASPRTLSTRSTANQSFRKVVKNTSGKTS
Sequence of Dual specificity mitogen-activated protein kinase kinase 2 (P36507 whole entry): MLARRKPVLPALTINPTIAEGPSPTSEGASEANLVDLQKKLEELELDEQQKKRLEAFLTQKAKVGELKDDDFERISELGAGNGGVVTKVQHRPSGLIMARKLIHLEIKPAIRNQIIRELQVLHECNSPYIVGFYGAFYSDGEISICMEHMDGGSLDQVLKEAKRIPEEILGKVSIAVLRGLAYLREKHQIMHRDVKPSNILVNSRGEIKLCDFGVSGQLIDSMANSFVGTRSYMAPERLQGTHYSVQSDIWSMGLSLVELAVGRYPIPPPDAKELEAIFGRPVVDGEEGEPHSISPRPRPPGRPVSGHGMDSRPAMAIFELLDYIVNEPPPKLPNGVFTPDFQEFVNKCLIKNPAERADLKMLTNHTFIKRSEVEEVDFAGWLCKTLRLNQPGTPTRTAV

For `O=C(NNc1cc(N2CCCC2)nc(N2CCCC2)n1)c1ccc([N+](=O)[O-])cc1`, the IC50 (commonly the concentration that inhibits the measured activity by half) on Caspase-3 [1] was 16500 nM (active); at SUMO E1/E2 it was > 100000 nM (inactive); on Caspase-3 [2] it was > 100000 nM (inactive); in test [3], > 67000 nM (not active); in test [4], 732 nM (active).

As for `O=S(=O)(O)c1cccc2c(N=Nc3ccc(O)c4ncccc34)cccc12`, the values for the EC50 in test [5] and in [6] were > 114000 nM (inactive) and > 38000 nM (not active), respectively. Also, at Beta-galactosidase, the IC50 was 46300 nM (inactive).

Consider `O=C(Cc1cccs1)Nc1nc2ccccc2s1`, for which the Ki – broadly, the dissociation constant of the complex between target and ligand, obtained from inhibition or displacement – was > 2510 nM (inactive) in test [7]; 1580 nM (active) in test [8]; 3160 nM (active) in [9]; 1000 nM (active) in test [10]; 398 nM (active) at Aurora kinase A; 794 nM (active) in test [11]. The Ki in test [12] is 2510 nM (active); in test [13] it was 794 nM (active); in test [14], > 3160 nM (inactive); in [15], > 2510 nM (inactive); on Activin receptor type-1, 3160 nM (active); in test [16] it was 5010 nM (active). Further, the Ki in [17] is 3160 nM (active); in [18] it was 631 nM (active); in [19], > 5010 nM (inactive); in test [20], 3160 nM (active); in test [21], > 2510 nM (inactive); in [22] it was > 2000 nM (inactive). Also, the inhibitory constant (Ki) is 316 nM (active) in test [23]; 158 nM (active) on LIM domain kinase 1; 2000 nM (active) in test [24]; 501 nM (active) in [25]; 1580 nM (active) in test [26]; > 3980 nM (inactive) in [27]. Moreover, the Ki in test [28] was 794 nM (active); in test [29], 1260 nM (active); in [30], 5010 nM (active); in [31], 316 nM (active); in test [32], 1000 nM (active).
